Patent US7511041B2, “Fused azole-pyrimidine derivatives” (Bayer Pharmaceuticals Corporation, priority 2002, dated 2009)
Like-named read-outs stand apart in the source and are kept apart here.

Assays:
[1] = target: T1, Recombinant human PI3Kγ (full length human PI3K p110γ) (Homo sapiens, UniProt P48736); assay: Kinase assay of PI3Kγ (solid-phase lipid kinase assay); format: biochemical
T1 construct: full length human PI3K p110γ fused with a His6-tag at the C-terminus; His6 (C); purchased ALEXIS BIOCHEMICALS #201-055-C010; host or cells: S. frugiperda 9 insect cells
Excerpt: [Determination of IC50 Values of Compounds in Kinase Assay of PI3Kγ]
Chemicals and Assay Materials
LABORATORIES (Toronto, Canada). Recombinant human PI3Kγ (full length human PI3K p110γ fused with a His6-tag at the C-terminus expressed in S. frugiperda 9 insect cells) was obtained from ALEXIS BIOCHEMICALS (#201-055-C010; San Diego, Calif.). […] BIOTECH (Buckinghamshire, UK) and ROCHE DIAGNOSTICS (Mannheim, Germany), respectively. Scintillation cocktails and MicroScint PS™ were purchased from PACKARD (Meriden, Conn.). Maxisorp™ plates were purchased from NALGE NUNC INTERNATIONAL K.K. (Tokyo, Japan). All other chemicals not further specified were from WAKO PURE CHEMICALS (Osaka, Japan).
Solid-Phase Lipid Kinase Assay
The plates were subsequently air-dried by incubation for at least 2 hours in a fume hood. The reaction was set up by mixing 25 μl/well of assay buffer 2× (100 mM MOPSO/NaOH, 0.2 M NaCl, pH 7.0, 8 mM MgCl2, 2 mg/ml BSA (fatty acid-free)) and 50 ng/well PI3Kγ in the lipid pre-coated plate and 10× test compounds were added in 2% DMSO. The reaction was started by adding 20 μl/well of ATP mix (final 10 μM ATP; 0.05 μCi/well [γ^33P]ATP). After incubation at RT for 2 hours, the reaction was terminated by adding 50 μl/well stop solution (50 mM EDTA, pH 8.0). The plate was then washed twice with Tris-buffered saline (TBS, pH 7.4). MicroScint PS™ (PACKARD) scintillation mix was added at 100 μl/well, and radioactivity was counted by using a TopCount™ (PACKARD) scintillation counter.
The inhibition percent at each concentration of compound was calculated, and IC50 values were determined from the inhibition of curve.

[2] = in vitro PI3K-γ inhibitory activity, class symbols A-D, read-out: in vitro PI3K-gamma
[3] = in vitro PI3K-γ inhibitory activity, class symbols, read-out: in vitro PI3K-gamma
[4] = Table 1, isozyme not given, read-out: in vitro

T1 sequence (P48736 whole entry, the tested form may be a part): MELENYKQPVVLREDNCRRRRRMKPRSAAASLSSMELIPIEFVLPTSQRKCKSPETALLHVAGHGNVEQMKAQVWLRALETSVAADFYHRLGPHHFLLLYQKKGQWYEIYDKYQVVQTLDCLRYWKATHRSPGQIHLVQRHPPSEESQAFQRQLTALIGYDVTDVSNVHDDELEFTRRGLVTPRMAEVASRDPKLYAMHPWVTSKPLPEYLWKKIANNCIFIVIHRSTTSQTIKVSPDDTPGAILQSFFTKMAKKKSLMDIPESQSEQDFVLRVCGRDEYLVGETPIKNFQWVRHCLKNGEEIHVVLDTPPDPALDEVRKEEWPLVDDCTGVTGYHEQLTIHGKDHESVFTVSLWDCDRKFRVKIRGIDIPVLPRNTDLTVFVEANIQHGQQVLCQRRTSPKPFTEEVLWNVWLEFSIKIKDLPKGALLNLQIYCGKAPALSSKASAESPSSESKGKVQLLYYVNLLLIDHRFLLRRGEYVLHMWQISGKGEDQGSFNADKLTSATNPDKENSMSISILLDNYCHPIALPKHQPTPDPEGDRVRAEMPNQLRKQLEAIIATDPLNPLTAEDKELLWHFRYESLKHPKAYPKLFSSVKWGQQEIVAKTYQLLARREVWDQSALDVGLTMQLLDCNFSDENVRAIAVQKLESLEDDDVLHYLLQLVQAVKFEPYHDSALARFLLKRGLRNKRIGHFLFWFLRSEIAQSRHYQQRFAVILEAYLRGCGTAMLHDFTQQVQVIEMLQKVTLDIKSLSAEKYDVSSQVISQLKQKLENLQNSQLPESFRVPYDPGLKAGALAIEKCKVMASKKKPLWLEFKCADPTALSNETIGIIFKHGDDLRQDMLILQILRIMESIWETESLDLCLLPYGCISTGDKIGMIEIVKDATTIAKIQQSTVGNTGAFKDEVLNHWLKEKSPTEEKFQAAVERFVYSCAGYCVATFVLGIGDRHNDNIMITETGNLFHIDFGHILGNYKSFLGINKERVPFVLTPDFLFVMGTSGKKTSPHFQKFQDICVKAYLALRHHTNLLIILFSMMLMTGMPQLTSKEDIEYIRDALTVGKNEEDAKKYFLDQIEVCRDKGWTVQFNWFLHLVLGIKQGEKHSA

In the case of CN(C)c1ccc2c(c1)C1=NCCN1C(NC(=O)c1cccnc1)=N2 [Example 2-345], the melting point is reported as 269 °C and the IC50 [1, 2] is reported as 500 to 2000 nM.
Compound Cc1cc(Br)c2c(c1)C1=NCCN1C(NC(=O)c1cccnc1)=N2.Cl [Example 2-74] has a melting point of 220 °C and an IC50 [1, 3] of less than 100 nM.
CSc1ncccc1C(=O)NC1=Nc2ccccc2C2=NCCN12 [Example 2-288] gave a melting point of 233 to 234 °C and an IC50 [1, 2] greater than 2000 nM.
Work on Cl.O=C(NC1=Nc2ccc(O)cc2C2=NCCN12)c1cccnc1 [Example 2-211] yielded a melting point greater than 300 °C and an IC50 [1, 2] of less than 100 nM.
With O=C(NC1=Nc2ccccc2C2=NCCN12)c1ccc(F)cc1 [Example 2-225] the melting point was 210 to 212 °C and the IC50 [1, 2] was greater than 2000 nM.
In the case of COc1ccc2c(c1)N=C(NC(=O)c1cccnc1)N1CCN=C21 [Example 2-20], the melting point is reported as 281 °C (dec.) and the IC50 [1, 3] is reported as 100 to 500 nM.
With O=C(Nc1nc2ccccc2c2nccn12)c1cccnc1 [Example 4-1, N-Imidazo[1,2-c]quinazolin-5-ylnicotinamide] the melting point was 223 to 224 °C (dec.) and the IC50 ([1]; activity class of IC50, read-out: In vitro PI3K-γ inhibitory activity) was 500 to 2000 nM.
Work on O=C(NC1=Nc2ccccc2C2=NCCN12)c1cc(Cl)cc(Cl)c1 [Example 2-231] yielded a melting point of 268 to 269 °C and an IC50 [1, 2] greater than 2000 nM.
In the case of Cl.O/C(=C\C1=Nc2c(F)cccc2C2=NCCN12)c1cccnc1 [Example 1-70], the melting point is reported as 218 °C and the IC50 [1, 4] is reported as less than 100 nM.
In the case of Cl.O=C(NC1=Nc2cc(OCCN3CCOCC3)ccc2C2=NCCN12)c1cccnc1 [Example 2-205], the melting point is reported as 243 to 247 °C (dec.) and the IC50 [1, 2] is reported as 100 to 500 nM.
With Cc1ccc2c(c1)N=C(NC(=O)c1cccs1)N1CCN=C21 [Example 2-31] the melting point was 182 °C and the IC50 [1, 3] was 100 to 500 nM.
For COc1cccc(C(=O)NC2=Nc3ccccc3C3=NCCN23)c1 [Example 2-233], the melting point was 202 to 204 °C and the IC50 [1, 2] was greater than 2000 nM.
In the case of Cl.O=C(O)CCCc1ccc2c(n1)N=C(/C=C(\O)c1cccnc1)N1CCN=C21 [Example 1-202], the melting point is reported as 285 °C (dec.) and the IC50 [1, 4] is reported as 100 to 500 nM.
In the case of COc1cc2c(cc1OC)C1=NCCN1C(/C=C(\O)c1ccc(C)nc1)=N2 [Example 1-49], the melting point is reported as 200 to 204 °C and the IC50 [1, 4] is reported as less than 100 nM.
In the case of CC(=O)Nc1ccc(/C(O)=C/C2=Nc3cc(N4CCCC(O)C4)ccc3C3=NCCN23)cn1.Cl (centres unmarked) [Example 1-102], the melting point is reported as 238 °C (dec.) and the IC50 [1, 4] is reported as 100 to 500 nM.
For COc1ccc(C(=O)NC2=Nc3ccccc3C3=NCCN23)cc1OC.Cl [Example 2-238], the melting point was 274 °C (dec.) and the IC50 [1, 2] was 100 to 500 nM.
For Cc1ncccc1C(=O)NC1=Nc2cc(N3CCOCC3)ccc2C2=NCCN12 [Example 2-12], the melting point was 199 °C (dec.) and the IC50 [1, 3] was 100 to 500 nM.
Cc1cc(C(=O)NC2=Nc3ccccc3C3=NCCN23)cnc1N [Example 2-159] gave a melting point of 246 to 247 °C and an IC50 [1, 3] of 100 to 500 nM.
For Cc1ncccc1C(=O)NC1=Nc2ccccc2C2=NCCN12 [Example 2-131], the melting point was 193 to 194 °C and the IC50 [1, 3] was 100 to 500 nM.
With Cl.O/C(=C\C1=Nc2ncccc2C2=NCCN12)c1ccc2[nH]cnc2c1 [Example 1-160] the melting point was 247 °C (dec.) and the IC50 [1, 4] was 100 to 500 nM.
Compound Cl.O/C(=C\C1=Nc2ccc(O)cc2C2=NCCN12)c1cccnc1 [Example 1-125] has a melting point greater than 300 °C and an IC50 [1, 4] of less than 100 nM.
With COc1cc(OC)c2c(c1)C1=NCCN1C(NC(=O)c1cccnc1)=N2.Cl [Example 2-69] the melting point was 275 °C (dec.) and the IC50 [1, 3] was 100 to 500 nM.
For COc1cc2c(c(OC)c1C)N=C(NC(=O)c1ccc(NC(C)=O)nc1)N1CCN=C21.Cl [Example 2-80], the melting point was 305 °C (dec.) and the IC50 [1, 3] was less than 100 nM.
With CN(C)/C=N/c1cncc(C(=O)NC2=Nc3ccccc3C3=NCCN23)c1 [Example 2-146] the melting point was 219 °C (dec.) and the IC50 [1, 3] was 100 to 500 nM.
With O=C(Cc1cccs1)NC1=Nc2ccccc2C2=NCCN12 [Example 2-324] the melting point was 122 to 123 °C and the IC50 [1, 2] was greater than 2000 nM.
With Cl.O=C(NC1=Nc2cc(N3CCOCC3)ccc2C2=NCCN12)c1ccc2[nH]cnc2c1 [Example 2-11] the melting point was 294 °C (dec.) and the IC50 [1, 3] was less than 100 nM.
Compound Cn1c(C(=O)NC2=Nc3ccccc3C3=NCCN23)cc2ccccc21 [Example 2-314] has a melting point of 259 to 260 °C and an IC50 [1, 2] greater than 2000 nM.
Compound Cl.O=C(NC1=Nc2cccc(Cl)c2C2=NCCN12)c1cccs1 [Example 2-359] has a melting point of 227 °C and an IC50 [1, 2] of 500 to 2000 nM.
With CC(=O)Nc1ccc(C(=O)NC2=Nc3ccccc3C3=NCCN23)cn1 [Example 2-151] the melting point was 320 °C (dec.) and the IC50 [1, 3] was less than 100 nM.
Work on Cl.O=C(NC1=Nc2ccccc2C2=NCCN12)c1ccc(C(F)(F)F)nc1 [Example 2-281] yielded a melting point greater than 250 °C and an IC50 [1, 2] of 500 to 2000 nM.
With O=C(NC1=Nc2ccc(Br)cc2C2=NCCN12)c1cccnc1 [Example 2-87] the melting point was 228 °C and the IC50 [1, 3] was 100 to 500 nM.
CC(=O)Oc1cccc2c1N=C(/C=C(\O)c1cccnc1)N1CCN=C21 [Example 1-93] showed a melting point of 225 to 226 °C and an IC50 [1, 4] of 100 to 500 nM.
With CN(C)c1ccc(C(=O)NC2=Nc3ccccc3C3=NCCN23)cc1.O=C(O)C(F)(F)F [Example 2-260] the melting point was 240 °C (dec.) and the IC50 [1, 2] was greater than 2000 nM.
Cc1cc(Br)c2c(c1)C1=NCCN1C(/C=C(\O)c1ccc3[nH]cnc3c1)=N2 [Example 1-47] showed a melting point greater than 285 °C and an IC50 [1, 4] of 100 to 500 nM.
In the case of COc1ccc(C(=O)NC2=Nc3ccccc3C3=NCCN23)cc1 [Example 2-235], the melting point is reported as 300 °C (dec.) and the IC50 [1, 2] is reported as greater than 2000 nM.
Compound Cl.O/C(=C\C1=Nc2cc(Br)ccc2C2=NCCN12)c1cccnc1 [Example 1-118] has a melting point of 233 °C and an IC50 [1, 4] of 100 to 500 nM.
Compound Cc1cc(Br)c2c(c1)C1=NCCN1C(/C=C(\O)c1cccnc1)=N2.Cl [Example 1-45] has a melting point greater than 290 °C and an IC50 [1, 4] of 100 to 500 nM.
O/C(=C\C1=Nc2ccccc2C2=NCCN12)c1ccccn1 [Example 1-173] showed a melting point of 195 °C and an IC50 [1, 4] of 500 to 2000 nM.
For Cc1cccc2c1N=C(NC(=O)c1cccnc1)N1CCN=C21 [Example 2-107], the melting point was 244 °C and the IC50 [1, 3] was 100 to 500 nM.
For Cl.O=C(NC1=Nc2ccccc2C2=NCCN12)c1cccc2cccnc12 [Example 2-318], the melting point was 316 °C (dec.) and the IC50 [1, 2] was greater than 2000 nM.
In the case of CC(C)C(=O)NC1=Nc2ccccc2C2=NCCN12 [Example 2-330], the melting point is reported as 104 to 105 °C and the IC50 [1, 2] is reported as greater than 2000 nM.
O=C(NC1=Nc2cc(Cl)ccc2C2=NCCN12)c1ccc2[nH]cnc2c1 [Example 2-39] showed a melting point of 288 °C and an IC50 [1, 3] of less than 100 nM.
Compound Cl.O=C(NC1=Nc2c(Cl)cccc2C2=NCCN12)c1cccnc1 [Example 2-103] has a melting point greater than 280 °C and an IC50 [1, 3] of 100 to 500 nM.
Work on Cl.O/C(=C\C1=Nc2cc(N3CCCC(O)C3)ccc2C2=NCCN12)c1ccc2[nH]cnc2c1 (centres unmarked) [Example 1-210] yielded a melting point greater than 300 °C and an IC50 [1, 4] of less than 100 nM.
Work on O=C(NC1=Nc2cc(C(F)(F)F)ccc2C2=NCCN12)c1ccc2[nH]cnc2c1 [Example 2-36] yielded a melting point greater than 300 °C and an IC50 [1, 3] of 100 to 500 nM.
Compound COc1c(OCC(=O)NCc2ccc(F)cc2)ccc2c1N=C(/C=C(\O)c1cccnc1)N1CCN=C21.Cl [Example 1-31] has a melting point of 230 to 231 °C and an IC50 [1, 4] of 100 to 500 nM.
Compound O=C(NC1=Nc2ccccc2C2=NCCN12)c1cnccn1 [Example 2-292] has a melting point of 267 to 268 °C and an IC50 [1, 2] of 500 to 2000 nM.
For O/C(=C\C1=Nc2cc(N3CCOCC3)ccc2C2=NCCN12)c1cccnc1 [Example 1-94], the melting point was 282 °C and the IC50 [1, 4] was 100 to 500 nM.
For O=C(NC1=Nc2cc(N3CCOCC3)ccc2C2=NCCN12)c1ccc2[nH]cnc2c1 [Example 2-10], the melting point was 250 °C (dec.) and the IC50 [1, 3] was 100 to 500 nM.
For O=C(NC1=Nc2ccccc2C2=NCCN12)c1ccc([N+](=O)[O-])cc1 [Example 2-254], the melting point was 279 to 281 °C and the IC50 [1, 2] was greater than 2000 nM.
Work on COc1cc2c(cc1OC)C1=NCCN1C(/C=C(\O)c1cccs1)=N2 [Example 1-58] yielded a melting point of 250 °C and an IC50 [1, 4] of 100 to 500 nM.
In the case of Cl.O=C(NC1=Nc2cc(N3CCOCC3)ccc2C2=NCCN12)c1cccnc1 [Example 2-8], the melting point is reported as 283 °C and the IC50 [1, 3] is reported as less than 100 nM.
With Cl.O=C(O)CCc1ccc2c(c1)N=C(/C=C(\O)c1cccnc1)N1CCN=C21 [Example 1-201] the melting point was 273 °C (dec.) and the IC50 [1, 4] was less than 100 nM.
Cc1nc(C)c(C(=O)NC2=Nc3ccccc3C3=NCCN23)s1.Cl [Example 2-190] gave a melting point of 289 to 290 °C and an IC50 [1, 3] of less than 100 nM.
Work on Cc1nc(C)c(/C(O)=C/C2=Nc3ccccc3C3=NCCN23)s1 [Example 1-156] yielded a melting point of 222 °C and an IC50 [1, 4] of less than 100 nM.
